{
  "source": "patent US20230255953A1",
  "about": "“USE OF ROLUPERIDONE IN PREVENTING RELAPSE IN SCHIZOPHRENIA PATIENTS” (Minerva Neurosciences, Inc., priority 2022, published 2023)",
  "tested_on": "patients with negative symptoms of schizophrenia",
  "assay": "Study #1 (MIN-101C03): Personal and Social Performance (PSP)",
  "assay_type": "in vivo, human",
  "details": "Week 12 DB; for Change from Baseline LS Mean: PSP Disturbing & Aggressive Behavior / Change from Baseline LS Mean: PSP Personal and Social Relationships / Change from Baseline LS Mean: PSP Self-care / Change from Baseline LS Mean: PSP Socially Useful Activities / Change from Baseline LS Mean: PSP Total Score (mapped from the 4 domains) / Effect Size vs Placebo: PSP Disturbing & Aggressive Behavior / Effect Size vs Placebo: PSP Personal and Social Relationships / Effect Size vs Placebo: PSP Self-care / Effect Size vs Placebo: PSP Socially Useful Activities / Effect Size vs Placebo: PSP Total Score (mapped from the 4 domains): ITT",
  "text": "The PSP is a validated clinician-rated scale intended to reflect real-life situations that measures personal and social functioning in 4 domains: (a) socially useful activities, (b) personal and social relationships, (c) self-care, and (d) disturbing and aggressive behaviors. The score is based on the assessment of a patient's performance in the 4 domains. The PSP Total score is a single measurement of functioning ranging from 1 to 100, where a higher score represents better functioning. A score of 91 to 100 indicates excellent functioning in all 4 main areas; the patient is held in high consideration for their good qualities, copes adequately with life problems, and is involved in a wide range of interests and activities. A score of 1 to 10 indicates a lack of autonomy in basic functioning with extreme behaviors but without survival risk (score 6 to 10) or with survival risk (score 1 to 5). […] Review of the relevant scientific literature and the analysis of the psychometric properties of the 4 domains that result in the generation of the PSP Total score were supportive of the appropriateness and cross-cultural applicability of the use of the PSP in drug development for the indication of negative symptoms of schizophrenia The PSP was assessed at the timepoints described in Table 6. The changes from Baseline in the PSP Total score and individual domain scores after 12 weeks of treatment were exploratory efficacy endpoints in Study MIN-101C03, and the Total score was the key secondary efficacy endpoint and the PSP domain scores were exploratory endpoints in Study MIN-101C07.\nPhase 2b Study #1 (also referred to herein as “MIN-101C03”) was a Phase 2b, double-blind (“DB”), placebo-controlled, randomized, multicenter 12-week study to evaluate the efficacy, safety, and tolerability of Roluperidone in patients ≥18 years to ≤60 years with negative symptoms of schizophrenia, followed by a 24-week open-label (“OL”) extension. The primary objective of the study was to evaluate the efficacy of Roluperidone compared to placebo in improving the negative symptoms of schizophrenia as measured by the change from Baseline in the PANSS negative factor score of the PSM (“PANSS PSM”) over 12 weeks of treatment.\nThe study consisted of a pretreatment screening period of up to 28 days (including washout), a 12-week, DB, placebo-controlled period, and a 24-week OL period. Eligible patients (who were symptomatically stable for at least 3 months and had scores of at least 20 on the PANSS negative subscale score) were randomized in a 1:1:1 ratio to receive oral Roluperidone (a modified-release, “MR”, formulation) 32 mg QD, Roluperidone 64 mg QD, or placebo for 12 weeks. […] During the 24-week, OL treatment extension period, patients who were initially randomized to Roluperidone 32 mg or 64 mg continued on the same dose, while patients who were initially randomized to placebo crossed over to Roluperidone 32 mg or 64 mg in a 1:1 ratio.",
  "data": [
    {"substance": "1H-Isoindol-1-one,2-[ [1-[2-(4-fluorophenyl)-2-oxoethyl]-4-piperidinyl]methyl]-2,3-dihydro-, hydrochloride, hydrate (1:1:2) [Roluperidone]", "values": [
      {"measurement": "Effect Size vs Placebo: 7-Point improvement in PSP Total Score responders", "setting": "32 mg QD", "result": 0.05},
      {"measurement": "Effect Size vs Placebo: 10-Point improvement in PSP Total Score responders", "setting": "32 mg QD", "result": 0.05},
      {"measurement": "Number of Patients with 7-Point improvement in PSP Total Score at Week 12", "setting": "32 mg QD", "result": "17/50"},
      {"measurement": "Number of Patients with 10-Point improvement in PSP Total Score at Week 12", "setting": "32 mg QD", "result": "17/50"},
      {"measurement": "Patients with 7-Point improvement in PSP Total Score at Week 12 (%)", "setting": "32 mg QD", "result": "(34%)"},
      {"measurement": "Patients with 10-Point improvement in PSP Total Score at Week 12 (%)", "setting": "32 mg QD", "result": "(34%)"},
      {"measurement": "Change from Baseline LS Mean: PSP Disturbing & Aggressive Behavior", "setting": "32 mg QD", "result": "−0.15"},
      {"measurement": "Change from Baseline LS Mean: PSP Personal and Social Relationships", "setting": "32 mg QD", "result": "−0.22"},
      {"measurement": "Change from Baseline LS Mean: PSP Self-care", "setting": "32 mg QD", "result": "−0.37"},
      {"measurement": "Change from Baseline LS Mean: PSP Socially Useful Activities", "setting": "32 mg QD", "result": "−0.41"},
      {"measurement": "Change from Baseline LS Mean: PSP Total Score (mapped from the 4 domains)", "setting": "32 mg QD", "result": 1.77},
      {"measurement": "Effect Size vs Placebo: PSP Disturbing & Aggressive Behavior", "setting": "32 mg QD", "result": 0.36},
      {"measurement": "Effect Size vs Placebo: PSP Personal and Social Relationships", "setting": "32 mg QD", "result": 0.02},
      {"measurement": "Effect Size vs Placebo: PSP Self-care", "setting": "32 mg QD", "result": 0.27},
      {"measurement": "Effect Size vs Placebo: PSP Socially Useful Activities", "setting": "32 mg QD", "result": 0.14},
      {"measurement": "Effect Size vs Placebo: PSP Total Score (mapped from the 4 domains)", "setting": "32 mg QD", "result": "−0.01"},
      {"measurement": "Effect Size vs Placebo: 7-Point improvement in PSP Total Score responders", "setting": "64 mg QD", "result": 0.17},
      {"measurement": "Effect Size vs Placebo: 10-Point improvement in PSP Total Score responders", "setting": "64 mg QD", "result": 0.17},
      {"measurement": "Number of Patients with 7-Point improvement in PSP Total Score at Week 12", "setting": "64 mg QD", "result": "26/54"},
      {"measurement": "Number of Patients with 10-Point improvement in PSP Total Score at Week 12", "setting": "64 mg QD", "result": "26/54"},
      {"measurement": "Change from Baseline LS Mean: PSP Disturbing & Aggressive Behavior", "setting": "64 mg QD", "result": "−0.24"},
      {"measurement": "Change from Baseline LS Mean: PSP Personal and Social Relationships", "setting": "64 mg QD", "result": "−0.56"},
      {"measurement": "Change from Baseline LS Mean: PSP Self-care", "setting": "64 mg QD", "result": "−0.48"},
      {"measurement": "Change from Baseline LS Mean: PSP Socially Useful Activities", "setting": "64 mg QD", "result": "−0.57"},
      {"measurement": "Change from Baseline LS Mean: PSP Total Score (mapped from the 4 domains)", "setting": "64 mg QD", "result": 8.52},
      {"measurement": "Effect Size vs Placebo: PSP Disturbing & Aggressive Behavior", "setting": "64 mg QD", "result": 0.51},
      {"measurement": "Effect Size vs Placebo: PSP Personal and Social Relationships", "setting": "64 mg QD", "result": 0.53},
      {"measurement": "Effect Size vs Placebo: PSP Self-care", "setting": "64 mg QD", "result": 0.46},
      {"measurement": "Effect Size vs Placebo: PSP Socially Useful Activities", "setting": "64 mg QD", "result": 0.38},
      {"measurement": "Effect Size vs Placebo: PSP Total Score (mapped from the 4 domains)", "setting": "64 mg QD", "result": 0.56}
    ]}
  ]
}
